From patent US9493486B2, “Diazaspirocycloalkane and azaspirocycloalkane” (Hoffmann-La Roche Inc., priority 2012, dated 2016)

Molecular target: ATX (human His-tagged) (Homo sapiens (Human), UniProt Q13822)
Assay: Human ATX enzyme inhibition assay (fluorescence quenching, MR121 substrate)
Type: biochemical
Settings: 30 nM ATX, 1 μM MR121 substrate, 30° C.
Source text: Human ATX Enzyme Inhibition Assay
Assay working solutions were made as follows:

SMILES | IC50 [µM]
O=C(c1ccc2[nH]nnc2c1)N1CC2(CCN(C(=O)[C@@H]3C[C@H]3c3cc(F)cc(F)c3)CC2)C1 (relative stereo) [Example 6.5, (2-(1H-benzo[d][1,2,3]triazole-5-carbonyl)-2,7-diazaspiro[3.5]nonan-7-yl)(trans-2-(3,5-difluorophenyl)cyclopropyl)methanone] | 3.22
O=C(OCc1ccccc1)N1CCC2(CC1)CN(C(=O)c1ccc3[nH]nnc3c1)C2 [Example 1.01, benzyl 2-(1H-benzo[d][1,2,3]triazole-5-carbonyl)-2,7-diazaspiro[3.5]nonane-7-carboxylate] | 2.4
O=C(OCc1ccc(Cl)cc1)N1CCC2(CC1)CN(C(=O)c1ccc3[nH]nnc3c1)C2 [Example 1.02, 4-chlorobenzyl 2-(1H-benzo[d][1,2,3]triazole-5-carbonyl)-2,7-diazaspiro[3.5]nonane-7-carboxylate] | 0.129
O=C(OCc1cccc(Cl)c1)N1CCC2(CC1)CN(C(=O)c1ccc3[nH]nnc3c1)C2 [Example 1.03, 3-chlorobenzyl 2-(1H-benzo[d][1,2,3]triazole-5-carbonyl)-2,7-diazaspiro[3.5]nonane-7-carboxylate] | 0.201
O=C(CCc1cc(Cl)cc(Cl)c1)N1CCC2(CC1)CN(C(=O)c1ccc3[nH]nnc3c1)C2 [Example 1.04, 1-(2-(1H-benzo[d][1,2,3]triazole-5-carbonyl)-2,7-diazaspiro[3.5]nonan-7-yl)-3-(3,5-dichlorophenyl)propan-1-one] | 0.115
Nc1ccc(C(=O)N2CC3(CCN(C(=O)CCc4cc(Cl)cc(Cl)c4)CC3)C2)cc1O [Example 1.05, 1-(2-(4-amino-3-hydroxybenzoyl)-2,7-diazaspiro[3.5]nonan-7-yl)-3-(3,5-dichlorophenyl)propan-1-one] | 1.04
Nc1ccc(C(=O)N2CC3(CCN(C(=O)OCc4cc(Cl)cc(Cl)c4)CC3)C2)cc1O [Example 1.06, 3,5-dichlorobenzyl 2-(4-amino-3-hydroxybenzoyl)-2,7-diazaspiro[3.5]nonane-7-carboxylate] | 0.107
O=C(NC1CC2(C1)CN(C(=O)OCc1ccccc1)C2)c1ccc2[nH]nnc2c1 [Example 1.07, 6-[(1H-benzotriazole-5-carbonyl)-amino]-2-aza-spiro[3.3]heptane-2-carboxylic acid benzyl ester] | 4.14
O=C(NC1CC2(C1)CN(C(=O)CCCc1ccccc1)C2)c1ccc2[nH]nnc2c1 [Example 1.08, N-(2-(4-phenylbutanoyl)-2-azaspiro[3.3]heptan-6-yl)-1H-benzo[d][1,2,3]triazole-5-carboxamide] | 3.35
O=C(NC1CC2(C1)CN(C(=O)c1ccc3[nH]nnc3c1)C2)OCc1ccccc1 [Example 1.10, [2-(1H-benzotriazole-5-carbonyl)-2-aza-spiro[3.3]hept-6-yl]-carbamic acid benzyl ester] | 3.7
O=C(NC1CC2(C1)CN(C(=O)CCc1cc(Cl)cc(Cl)c1)C2)c1ccc2[nH]nnc2c1 [Example 1.11, N-(2-(3-(3,5-dichlorophenyl)propanoyl)-2-azaspiro[3.3]heptan-6-yl)-1H-benzo[d][1,2,3]triazole-5-carboxamide] | 0.155
O=C(NC1CC2(C1)CN(C(=O)OCc1cc(Cl)cc(Cl)c1)C2)c1ccc2[nH]nnc2c1 [Example 1.13, 6-[(1H-benzotriazole-5-carbonyl)-amino]-2-aza-spiro[3.3]heptane-2-carboxylic acid 3,5-dichloro-benzyl ester] | 5.43
CS(=O)(=O)c1cc(Cl)cc(COC(=O)N2CCC3(CC2)CN(C(=O)c2ccc(S(N)(=O)=O)cc2)C3)c1 [Example 1.17, 3-chloro-5-(methylsulfonyl)benzyl 2-(4-sulfamoylbenzoyl)-2,7-diazaspiro[3.5]nonane-7-carboxylate] | 0.729
CS(=O)(=O)c1cc(Cl)cc(COC(=O)N2CCC3(CC2)CN(C(=O)c2cccc(S(N)(=O)=O)c2)C3)c1 [Example 1.18, 3-chloro-5-(methylsulfonyl)benzyl 2-(3-sulfamoylbenzoyl)-2,7-diazaspiro[3.5]nonane-7-carboxylate] | 0.625
O=C(OCc1cc(F)cc(OC(F)(F)F)c1)N1CCC2(CCCN(C(=O)c3ccc4[nH]nnc4c3)C2)C1 (stereo not shown) [Example 1.20, 3-fluoro-5-(trifluoromethoxy)benzyl 7-(1H-benzo[d][1,2,3]triazole-5-carbonyl)-2,7-diazaspiro[4.5]decane-2-carboxylate] | 0.12
O=C(c1ccc2[nH]nnc2c1)N1CC2(CCN(S(=O)(=O)CCc3cccc(Cl)c3)CC2)C1 [Example 1.21, (1H-benzotriazol-5-yl)-{7-[2-(3-chloro-phenyl)-ethanesulfonyl]-2,7-diaza-spiro[3.5]non-2-yl}-methanone] | 0.821

These reach a lower IC50. Values come first.

IC50 [µM] | SMILES
0.015 | O=C(OCc1cc(Cl)cc(Cl)c1)N1CCC2(CC1)CN(C(=O)c1ccc3[nH]nnc3c1)C2 [Example 1, 3,5-Dichlorobenzyl 2-(1H-benzo[d][1,2,3]triazole-5-carbonyl)-2,7-diazaspiro[3.5]nonane-7-carboxylate]
0.0505 | CS(=O)(=O)c1cc(Cl)cc(COC(=O)N2CCC3(CC2)CN(C(=O)c2ccc4[nH]nnc4c2)C3)c1 [Example 1.09, 3-chloro-5-(methylsulfonyl)benzyl 2-(1H-benzo[d][1,2,3]triazole-5-carbonyl)-2,7-diazaspiro[3.5]nonane-7-carboxylate]
0.035 | O=C(NC1CC2(C1)CN(C(=O)c1ccc3[nH]nnc3c1)C2)OCc1cc(Cl)cc(Cl)c1 [Example 1.12, [2-(1H-benzotriazole-5-carbonyl)-2-aza-spiro[3.3]hept-6-yl]-carbamic acid 3,5-dichloro-benzyl ester]
0.0737 | O=C(OCc1cc(Cl)cc(Cl)c1)N1CCC2(C1)CN(C(=O)c1ccc3[nH]nnc3c1)C2 [Example 1.14, 3,5-dichlorobenzyl 2-(1H-benzo[d][1,2,3]triazole-5-carbonyl)-2,6-diazaspiro[3.4]octane-6-carboxylate]
0.0645 | O=C(OCc1cc(Cl)cc(Cl)c1)N1CC2(CCN(C(=O)c3ccc4[nH]nnc4c3)CC2)C1 [Example 1.15, 3,5-dichlorobenzyl 7-(1H-benzo[d][1,2,3]triazole-5-carbonyl)-2,7-diazaspiro[3.5]nonane-2-carboxylate]
0.0395 | O=C(OCc1cc(Cl)cc(Cl)c1)N1CCC2(CCN(C(=O)c3ccc4[nH]nnc4c3)CC2)C1 [Example 1.19, 3,5-dichlorobenzyl 8-(1H-benzo[d][1,2,3]triazole-5-carbonyl)-2,8-diazaspiro[4.5]decane-2-carboxylate]
0.015 | NS(=O)(=O)c1ccc(C(=O)N2CC3(CCN(C(=O)OCc4ccc(OC(F)(F)F)cc4)CC3)C2)cc1 [Example 1.22, 4-(trifluoromethoxy)benzyl 2-(4-sulfamoylbenzoyl)-2,7-diazaspiro[3.5]nonane-7-carboxylate]
0.001 | NS(=O)(=O)c1ccc(C(=O)N2CC3(CCN(C(=O)OCc4ccc(OC(F)(F)F)cc4F)CC3)C2)cc1 [Example 1.23, 2-fluoro-4-(trifluoromethoxy)benzyl 2-(4-sulfamoylbenzoyl)-2,7-diazaspiro[3.5]nonane-7-carboxylate]
0.012 | O=C(CCc1ccc(OC(F)(F)F)cc1)N1CCC2(CC1)CN(C(=O)c1ccc3[nH]nnc3c1)C2 [Example 1.24, 1-(2-(1H-benzo[d][1,2,3]triazole-5-carbonyl)-2,7-diazaspiro[3.5]nonan-7-yl)-3-(4-(trifluoromethoxy)phenyl)propan-1-one]
